The values that follow come from patent US8962830B2, “Protein kinase inhibitors and methods of treatment” (The Walter and Eliza Hall Institute of Medical Research, priority 2010, dated 2015).

Series [1] relates to LIM 1899 colon carcinoma derived epithelial cells. Put plainly: Cellular activity, MTT cell growth assay, LIM1899. The format is cell-based. The note with it: 96 h, 4 days incubation. The procedure:
(§1) A. Cells, Inhibitors and Incubation
(§2) 1. Cell Lines • LIM 1899 colon carcinoma derived epithelial cells were grown in RPMI+Adds^1+10% FCS. ^1 Additives for culture of LIM cell lines: 10 μM thioglycerol, 0.025 U/mL insulin, 1 μg/mL hydrocortisone
(§3) 2. Cell Plating in 96 Well Plate. • Assay medium: RPMI+Adds+5% FCS • Cells are trypsinized, washed once in assay medium and brought to the required concentration as described below: • Need 10^4 cells per well in 100 μL per well=10^5 per mL for plating • After washing, cells were resuspended in 5 mL and counted (1×T75 flask gives approx 2−3×10 eg^6 per mL). • Cells were then diluted to 10^5 cells/mL (need 10 mL minimum per plate). • Eg. Cell count in 5 mL is 25×10^5/mL • For 10^5/mL, dilute 1 mL to 25 mL • 100 μL per well cells were plated with multistepper pipette, over the whole plate. Plates were incubated overnight at 37° C.+5% CO2 incubator.
(§4) 3. Inhibitor Stocks • Inhibitors were dissolved in DMSO for 10 mM stocks. MW and amount of compound given was used to calculate the volume required for each. • 4× the highest concentration of the compound in the assay was calculated to prepare the working stocks. • eg 1st well final concentration in assay was 10 μM. • Therefore working stock was 40 μM • Stock solution is 10 mM→40 μM=4 μl in 1.0 mL assay medium for working stock.
(§5) 4. Plate Plan: • Rows A,B: Inhibitor 1 • Rows C,D: Inhibitor 2 • Rows E,F: Inhibitor 3 • Row G: RPMI+Adds+5% FCS (=maximum growth) • Row H: RPMI+Adds serum free (=minimum growth)
(§6) 5. Titration of Inhibitors • A 96 well plate was used to titrate the inhibitors for each assay plate: • 150 μL assay medium was added to each well of a 96 well plate. • 150 μL of Inhibitor 1 working stock was added wells A1 and B1. • Repeated with Inhibitor 2 to C1 and D1 • Repeated with Inhibitor 3 to E1 and F1 • Serial ½ dilutions were performed across the plate, rows A to F, left to right with 150 μL.
(§7) 6. Transfer Titrated Inhibitors to Cell Assay Plate: Final Volume 200 μl • Using a multichannel pipette, 100 μL was transferred from the corresponding wells of the titration plate to the cell assay plate, rows A to G. • Row H: medium was carefully removed from the cell wells with a 200 μL tip, and replaced with 200 μL serum free medium.
(§8) 7. Incubation • Plates were incubated for 4 days at 37° C. with 5% CO2.
(§9) B. Use of MTT to Measure Cell Growth
(§10) 1. MTT Preparation and Storage • MTT Sigma M-2128 5 g • Dissolved in PBS, at 5 mg/mL • 5 g bottle dissolved in 1 liter PBS (some impurities remain) • Filter sterilized and aliquoted in 50 mL tubes, stored at −20° C. • As needed, 50 mL tube was thawed and aliquoted in 5 mL tubes, re-stored at −20° C. • Stable at 4° C. for 1 month (unstable if left at 37° C. too long while thawing)
(§11) 2. MTT Solvent • a. 1M HCl: • Mixed 44.6 mL conc HCl (11.2M) in 500 mL DDW • b. Acidified isopropanol (Isopropanol with 0.04 N HCl): • Mixed 20 mL 1M HCl with 480 mL isopropanol (Propan-2-ol, iso-Propyl Alcohol)
(§12) 3. MTT Assay • After cell incubation (above): • Added 10 μL MTT to each well. • Incubated 4 hrs in 37° C. incubator. • Spun plates, 5 min, 1500 rpm. • Carefully flicked out medium into the sink, without disturbing the crystals. • Added 200 μL acidified isopropanol per well. • Placed on plate shaker, RT, speed 6.5, for 10 min-30 min. • Read OD of plates on Thermo Multiskan Ex, at 560/690 nm.
(§13) • Mosmann, T. • Rapid colorimetric assay for cellular growth and survival: application to proliferation and cytotoxic assays. Journal of Immunological Methods (1983), 65:55-63. Table with Examples of Cellular Data
(§14) The compounds in this invention display cellular activities against a range of tumour or transformed cell lines in particular colon cancer cell lines such as LIM1215, LIM2537 and LIM1899.
A general note: Tetrazolium assays rely on reduction of a dye to a coloured formazan, in cell work by metabolically active cells.

Series [2] has as its system LIM2537. Kind of series: Cellular activity, MTT cell growth assay, LIM2537. The format is cell-based. The note with it: 96 h, 4 days incubation. The procedure: as §1, §2, §3, §4, §5, §6, §7, §8, §9, §10, §11, §12, §13, §14
Series [3] concerns RasNIH3T3. Kind of series: Cellular activity, MTT cell growth assay, RasNIH3T3. The format is cell-based. The note with it: 96 h, read-out: RasNIH3T3 (cellular data).
The subject of series [4] is LIM1215. Put plainly: Cellular activity, MTT cell growth assay, LIM1215. Particulars: LIM1215, 96 h, read-out: LIM1215 (cellular data). The format is cell-based. On the procedure:
as §1, §2, §3, §4, §5, §6, §7, §8, §9, §10, §11, §12, §13, §14

Series [5] concerns the target T1, Src recombinant enzyme, N-terminally His6 tagged full-length human protein (Homo sapiens, UniProt P12931).
T1 construct: Src recombinant enzyme was purchased as N-terminally His6 tagged full-length human protein; His6 (N); purchased
Kind of series: SRC kinase inhibition assay (AlphaScreen). The format is biochemical. The note with it: 80 μM ATP, 90 minutes at 30 degree Celsius. On the procedure:
Protocol for SRC Kinase Inhibition Assay. Compounds of the invention were tested for in vitro activity in the following assay: A biotin labeled peptide was used as substrate (amino acid sequence: Biotin-[…]). Src recombinant enzyme was purchased as N-terminally His6 tagged full-length human protein. The 15 μL assay reactions were run in Greiner brand white 384-well low volume plates. […] Compounds were added in a volume of 100 nL from dilution series made up in DMSO, positive and negative control reactions receiving the same volume DMSO without compounds. The plates were sealed with adhesive seals and incubated for 90 minutes at 30 degree Celsius. The reactions were stopped with the detection reagents added at the same time. Product formation was quantified as photochemiluminescence between PerkinElmer AlphaScreenTM beads, using Streptavidin-coated donor and anti-phosphotyrosine (P-[…]) acceptor beads. […] Plates were incubated for 5 hours before being read on a PerkinElmer EnVisionTM plate reader in HTS AlphascreenTM mode. IC50 values were obtained by calculating percent inhibition (% I) for each reaction relative to controls on the same plate (% [SMILES] where CN/CP are the averages of the negative/positive reactions, respectively), then fitting the % I data vs. compound concentration [I] to % I=([…])))) where A is the lower asymptote, B is the upper asymptote, C is the IC50 value, and D is the slope factor.
(In general: In Alpha technology, singlet oxygen from a donor bead excites a nearby acceptor bead.)

The nature of series [6]: Solubility. The format is physicochemical.
In series [7] the test system is SFKs (Src family kinases). Particulars: reported; no discrimination between family members; cited from earlier work.

Where two headings read alike, the source gives them in different places.

T1 sequence (P12931 whole entry): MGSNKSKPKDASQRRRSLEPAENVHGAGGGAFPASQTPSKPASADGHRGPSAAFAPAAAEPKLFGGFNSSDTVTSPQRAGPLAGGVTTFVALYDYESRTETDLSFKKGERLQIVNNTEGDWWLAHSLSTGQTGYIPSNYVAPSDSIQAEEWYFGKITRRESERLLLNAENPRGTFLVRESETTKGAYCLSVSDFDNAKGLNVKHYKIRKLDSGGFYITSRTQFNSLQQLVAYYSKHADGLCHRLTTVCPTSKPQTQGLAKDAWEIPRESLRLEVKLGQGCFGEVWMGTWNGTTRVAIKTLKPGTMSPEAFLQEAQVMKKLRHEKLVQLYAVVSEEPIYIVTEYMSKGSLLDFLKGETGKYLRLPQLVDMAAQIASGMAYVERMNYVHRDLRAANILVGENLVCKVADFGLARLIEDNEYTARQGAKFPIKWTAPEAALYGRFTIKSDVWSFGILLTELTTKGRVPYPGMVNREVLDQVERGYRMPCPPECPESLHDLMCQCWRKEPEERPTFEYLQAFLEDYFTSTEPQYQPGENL

Regarding `CC(C)(CNC(=O)c1ccccc1)n1nc(-c2ccc(Cl)cc2)c2c(N)ncnc21` [74 (compound 74F)], the IC50 in series [1] was > 20000 nM; in series [2] it was > 10000 nM.
With `Cc1nc(Nc2ncc(C(=O)Nc3c(C)cccc3Cl)s2)cc(N2CCN(CCO)CC2)n1` [Dasatinib, reference compound], the IC50 in series [1] is 1200 nM; in series [3] (MTT, 4 days incubation), 9000 to 12000 nM; in series [4] (MTT, 4 days incubation), 2000 nM.
As for `Cc1ccc(-c2nn(C(C)(C)CNC(=O)c3ccccc3)c3ncnc(N)c23)cc1` [Example 11], the IC50 is 1700 nM in series [1] and 100 to 1000 nM in series [5].
For `Cc1ccc(-c2nn(C(C)(C)CNC(=O)c3ccccn3)c3ncnc(N)c23)cc1` [Example 12], the IC50 was 170 nM in series [1]; 170 nM in series [2]; 1 to 100 nM in series [5]; 110 nM in series [3] (MTT, 4 days incubation); 170 nM in series [4] (MTT, 4 days incubation).
For `Cc1ccc(-c2nn(C(C)(C)CNC(=O)c3cc(Br)ccn3)c3ncnc(N)c23)cc1` [Example 42], the IC50 was 1 to 100 nM in series [5]; 1900 nM in series [3] (MTT, 4 days incubation); 900 nM in series [4] (MTT, 4 days incubation).
The matching figures for `Cc1ccc(-c2nn(C(C)(C)CNC(=O)c3cnccn3)c3ncnc(N)c23)cc1` [Example 56]: 1 to 100 nM, 1620 nM and 400 nM.
Take `Cc1ccc(-c2nn(C(C)(C)CNC(=O)c3cncnc3)c3ncnc(N)c23)cc1` [Example 57]: the IC50 was 1000 to 10000 nM in series [5]; > 20000 nM in series [3] (MTT, 4 days incubation); 1600 nM in series [4] (MTT, 4 days incubation).
In the same order, the values of `Cc1ccc(-c2nn(C(C)(C)CNS(=O)(=O)c3ccccc3)c3ncnc(N)c23)cc1` [Example 59] are 100 to 1000 nM, > 20000 nM and 3100 nM.
As for `Cc1ccc(-c2nn(C(C)(C)CNC(=O)c3cccnc3)c3ncnc(N)c23)cc1` [Example 60], the IC50 in series [5] was 100 to 1000 nM; in series [3] (MTT, 4 days incubation), 17000 nM; in series [4] (MTT, 4 days incubation) it was 1900 nM.
Take `COc1ccnc(C(=O)NCC(C)(C)n2nc(-c3ccc(C)cc3)c3c(N)ncnc32)c1` [Example 61]: the IC50 in series [1] is 1600 nM; in series [5], 1 to 100 nM; in series [3] (MTT, 4 days incubation) it was 1830 nM; in series [4] (MTT, 4 days incubation) it was 800 nM.
Take `Cc1ccc(-c2nn(C(C)(C)CNC(=O)c3ccncn3)c3ncnc(N)c23)cc1` [Example 62]: the IC50 was 1 to 100 nM in series [5]; 350 nM in series [3] (MTT, 4 days incubation); 250 nM in series [4] (MTT, 4 days incubation).
For `Cc1ccc(-c2nn(C(C)(C)CNC(=O)c3cc(Cl)ccn3)c3ncnc(N)c23)cc1` [Example 63], the IC50 in series [1] was 1700 nM; in series [5] it was 100 to 1000 nM; in series [3] (MTT, 4 days incubation), 6290 nM; in series [4] (MTT, 4 days incubation), 2600 nM.
`Cc1ccc(-c2nn(C(C)(C)CNC(=O)c3cscn3)c3ncnc(N)c23)cc1` [Example 64]: the IC50 in series [1] is 880 nM; in series [2] it was 1100 nM; in series [5], 1 to 100 nM; in series [3] (MTT, 4 days incubation), 630 nM.
Turning to `Cc1ccc(-c2nn(C(C)(C)CNC(=O)c3cc(C)ccn3)c3ncnc(N)c23)cc1` [Example 65], the IC50 in series [1] is 900 nM; in series [5] it was 100 to 1000 nM; in series [3] (MTT, 4 days incubation), 1670 nM; in series [4] (MTT, 4 days incubation), 960 nM.
The matching figures for `Cc1ccc(-c2nn(C(C)(C)CNC(=O)c3cc(-c4ccccc4)ccn3)c3ncnc(N)c23)cc1` [Example 66]: 310 nM, 1 to 100 nM, 500 nM and 520 nM.
`Cc1ccc(-c2nn(C(C)(C)CNC(=O)c3ncccc3C)c3ncnc(N)c23)cc1` [Example 71]: the IC50 in series [1] was 3100 nM; in series [5], > 10000 nM.
Regarding `Cc1ccc(-c2nn(C(C)(C)CNC(=O)c3cccc(C)n3)c3ncnc(N)c23)cc1` [Example 73], the IC50 in series [1] is 1100 nM; in series [5] it was 1000 to 10000 nM.
As for `CC(C)(CNC(=O)c1ccccn1)n1nc(-c2ccc(Cl)cc2)c2c(N)ncnc21` [Example 75], the IC50 in series [1] was 900 nM; in series [2], 1600 nM; in series [5] it was 1 to 100 nM.
`Cc1ccc(-c2nn(C(C)(C)CNC(=N)c3ccccc3)c3ncnc(N)c23)cc1` [Example 76]: the IC50 in series [1] is 19000 nM; in series [2], > 10000 nM; in series [5], 1000 to 10000 nM.
As to `Cc1ccc(-c2nn(C(C)(C)CNC(=N)c3ccccn3)c3ncnc(N)c23)cc1` [Example 77], the IC50 in series [2] is > 10000 nM; in series [5], 1 to 100 nM.
Turning to `Cc1ccc(-c2nn(C(C)(C)C)c3ncnc(N)c23)cc1` [PP1, reference compound], in series [6], the solubility result was “poorly soluble”. For the same molecule, the IC50 in series [3] turned out to be 9250 nM; in series [4], 250 nM. Besides, the “inhibition of SFKs” value in series [7] is recorded as “potent inhibitors”.
`CC(C)(C)n1nc(-c2ccc(Cl)cc2)c2c(N)ncnc21` [PP2]: the solubility entry in series [6] is “poorly soluble”. Further, in series [7], the “inhibition of SFKs” value is “potent inhibitors”.
